# From patent US20240165311A1, “STEM CELLS FOR USE IN ECMO TECHNOLOGY” (priority 2021, published 2024)
# What was measured:
# [1] = tested on: human PBMCs activated with anti-CD3/anti-CD28; test: PBMC:MSC co-culture, cell composition after 24 hours of activation (FACS); details: Prednisolone 125 nM
# Description: (§1) Freshly isolated human PBMCs, pooled from three donors, were activated with anti-CD3/anti-CD28 at 10 μg/ml and 5 μg/ml respectively in presence of MSCs ex vivo for 24 or 72 hours. Following activation, cells were analysed for effects on cellular composition after 24 hours and for effects on cellular composition and cell proliferation using CFSE after 72 hours. In addition, supernatants collected after 24 hours of activation were analysed for cytokine levels using Luminex.
# (§2) Peripheral Blood Mononuclear Cells (PBMCs) were isolated from leucocyte concentrate from three different donors (acquired from Blodcentralen, Lunds Universitetssjukhus, Lund, Sweden) through gradient centrifugation at 400×g for 40 minutes using Ficoll. Red blood cells (RBCs) were lysed using BD Pharmlyse buffer 10× diluted in milliQ water for 3 minutes at room temperature (RT). Cells were washed and the isolated PBMCs were pooled. Cell concentration was determined using a Scepter cell counter (Millipore Merck, MA. USA). Cells were diluted to 1×10^7 cells/ml in PBS. Pooled PBMCs were split into 2 different tubes. Cells in tube 1 was stained with CFSE at 5 μM for 5 minutes (dark, RT). CFSE stained cells were washed with an equal volume of FBS to stop the reaction and washed again with PBS. Cells in tube two was left in PBS.
# (§3) MSCs (donor 1, donor 2, donor 3, and AD-MSC control cells) were provided in 8 different tubes, two for each cell type (in different medias (M3 and M4). All cells (PBMCs and MSCs) were diluted in the two different cell culture media (M3 and M4) to a final concentration of 2*10^6 cells/ml. Media was supplemented with anti-CD28 at 5 μg/ml. Cells were added to anti-CD3 (1 μg/well, 100 μl/well) coated U bottom cell culture plates according to the layout below, 200 μl/well in different PBMC:MSC ratios (1:10, 1:5, 1:2.5, 1:0 and 0:1) with a total amount of cells at 4*10^5 cells/well.
# (§4) Included in the assay were also controls (stimulated and unstimulated PBMCs) and two reference drugs, e.g. cyclosporine (CsA) and Prednisolone (Pred). When plating controls, cells were spun down and diluted in M3 or M4 at 4*10^6 cells/ml, with a total amount of cells at 4*10^5 cells/well. 100 μl PBMCs were added per well. CsA was added at a final concentration of 10 μg/ml and Prednisolone was added at a final concentration of 125 nM (700 μl/well). Medium was added to unstimulated control wells (700 μl/well). Cells were incubated for 24 or 72 hours at 37° C., 5% CO2. See also FIG. 19.
# Following 24 hours of incubation, cells in FACS/Luminex plates were stained with antibodies detecting CD73, CD4, CD8, CD80, CD206, CD163 and PD-1 in staining buffer (PBS supplemented with 1% BSA). Briefly, cells were transferred to V bottom plates and centrifuged at 360×g for 2 min. Supernatant was transferred to a storage plate and put in −20° C. until analysis using Luminex. Cells were washed in PBS, centrifuged at 360×g for 2 min at 4° C. Supernatant was flicked off and antibodies against surface markers were added. Cells were incubated at +4° C. for 20 minutes (dark). After incubation, cells were washed 1× in PBS, centrifuged at 360×g for 2 min at 4° C. Cells were resuspended in PBS and acquired using the Attune Nxt flow cytometer. Compensation was performed using beads—AbC Total Compensation capture beads and negative beads. Since compensation was done using beads, FSC and SSC were changed before analysing samples and adjusted to cells. Lasers were not changed after compensation. 150 μl was analysed from each sample.
# [2] = tested on: human PBMCs activated with anti-CD3/anti-CD28; test: Cytokine analysis after 24 hours of activation (Luminex); type: cell-based; details: stimulated PBMCs, Prednisolone 125 nM
# Description: Cells were washed and the isolated PBMCs were pooled. […] Pooled PBMCs were split into 2 different tubes. […] Cells in tube two was left in PBS. […] See also FIG. 19. Supernatant (24 hours incubation) was analysed for cytokines using the 12-[…]-12 Luminex kit. All reagents, standard and samples were prepared at room temperature and according to manufacturer's instruction. Briefly, 50 μl of standard or sample was added to wells. Microparticles were added to samples and standard and samples were incubated for 2 hours at room temperature on a horizontal orbital shaker (800 rpm). Plate was washed 3× in washing buffer using a magnetic plate. Biotin-antibody was added and incubated dark for 1 hour at room temperature on a horizontal orbital shaker (800 rpm). Plate was washed 3× in washing buffer using a magnetic plate. Streptavidin-PE was added to each well and incubated dark at room temperature on a horizontal orbital shaker (800 rpm) for 30 minutes. Plate was washed 3× in washing buffer using a magnetic plate. Microparticles were resuspended in 100 μl washing buffer, incubated for 2 minutes on a horizontal orbital shaker (800 rpm). Samples were analysed on a Bio-Rad Luminex analyzer.
# [3] = tested on: human PBMCs activated with anti-CD3/anti-CD28; test: PBMC:MSC co-culture, proliferation and cell composition after 72 hours of activation (FACS after CFSE labeling); details: MSCs in co-culture, Prednisolone 125 nM
# Description: as §1, §2, §3, §4
# After 72 hours of incubation, CFSE stained cells were stained with CD4, CD8, CD80, CD206 and CD163 in staining buffer. Briefly, cells were transferred to V bottom plates, centrifuged at 360×g for 2 min. Cells were washed in PBS, centrifuged at 360×g for 2 min at 4° C. Supernatant was flicked off and surface markers were added. Cells were incubated at +4° C. for 20 minutes. After incubation, cells were washed 1× in PBS, centrifuged at 360×g for 2 min at 4° C. Cells were resuspended in PBS and acquired using the Attune Nxt flow cytometer. Compensation was performed using beads—AbC Total Compensation capture beads and negative beads for surface markers. For CFSE compensation, newly CFSE stained cells were used. Since compensation was done using both beads and cells, FSC and SSC were changed and adjusted to beads or cells. […]
# Graphs were performed using Prism 8 for Mac OS X (GraphPad Software, San Diego, CA, USA). […] The inhibitory effect of MSCs on PBMC proliferation was calculated according to the two formulas below: […]
smiles,measurement,setting,value
C[C@]12C=CC(=O)C=C1CC[C@@H]1[C@@H]2[C@@H](O)C[C@@]2(C)[C@H]1CC[C@]2(O)C(=O)CO [Prednisolone],M2 macrophage expression,[1]; CsA 10 μg/ml,no effect
same,expression level of M1 macrophages,[1]; CsA 10 μg/ml,no effect
same,macrophage cell composition,[1],did not have an effect
same,T cell activation,"[1]; reference drug treated PBMCs, CsA 10 μg/ml",only slightly inhibits
same,% T helper cells,[1]; reference drug treated PBMCs,higher levels
same,IL-6 levels in supernatant,[2]; CsA 10 μg/ml,inhibits
same,"the other analysed cytokines, levels in supernatant","[2]; CsA 10 μg/ml, 12-plex Luminex",No inhibitory effect
same,TNF-α levels in supernatant,"[2]; MSCs at all ratios, CsA 10 μg/ml",inhibits
same,IL12/IL23p40 levels in supernatant,[2]; MSCs at all ratios,inhibits
same,HGF levels in supernatant,"[2]; MSCs dose-dependent, CsA 10 μg/ml",inhibits
same,T helper cells (% ),"[3]; 72 hours of incubation, CsA 10 μg/ml",no effect
same,M1 proliferation (CFSE),"[3]; 72 hours, CsA 10 μg/ml",No effect
same,M2 expression levels,"[3]; 72 hours, CsA 10 μg/ml",no effect
same,M2 proliferation (CFSE),"[3]; 72 hours, CsA 10 μg/ml",No effect
same,M1 expression levels,[3]; 72 hours,no effect
